A short description of data set [1]: chemical recovery from spiked human plasma; higher = better extraction. To be noted: pooled human plasma.
The nature of data set [2]: chemical recovery into PDMS from spiked human plasma; higher = better extraction. As to conditions: pooled human plasma, extraction method: PES with PDMS.
The nature of data set [3]: chemical recovery by SPE of plasma after PDMS sampling; higher = better extraction. As to conditions: pooled human plasma, extraction method: HLB SPE of plasma after PES.
[4] abbreviates: extraction method: PES+SPE (3 d PDMS equilibration then HLB SPE).
Setting [5] is: extraction method: SPE only (HLB 96-well).
[6] abbreviates: extraction method: SPE only (HLB 96-well), PES comparison experiment.
Setting [7] is: extraction method: solvent precipitation (ACN + hexane).

± gives the standard deviation.
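For chemical recovery by SPE of plasma after PDMS sampling in this document: over 400 spiked chemicals quantified by LC-HRMS or GC-HRMS via internal standard calibration, recovery relative to spike mix added to unspiked plasma extract to correct matrix effects.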

With `CNC(=O)/C(=N/OC)c1ccccc1COc1cc(C)ccc1C` [Dimoxystrobin], the chemical recovery in data set [1] (setting [4]) amounted to 60.1 ± 20%; in data set [1] (setting [5]) it was 35.7 ± 4%; in data set [1] (setting [6]), 50.3 ± 9.1%; in data set [1] (setting [7]) it was 72.7 ± 5.8%. The “chemical recovery into PDMS” value in data set [2] (equilibration time (d): 1) was found to be 42.8 ± 4.3%; in data set [2] (equilibration time (d): 3) it was 44.9 ± 3.4%; in data set [2] (equilibration time (d): 6), 43.2 ± 1.9%. Moreover, the “chemical recovery by SPE of plasma” value in data set [3] (equilibration time (d): 1) was 3.56 ± 3.1%; in data set [3] (equilibration time (d): 3), 9.02 ± 0.83%; in data set [3] (equilibration time (d): 6) it was 7.35 ± 0.63%.
As to `CCCCCCCCc1cccc(Nc2ccccc2)c1CCCCCCCC` [Dioctyldiphenylamine], in data set [1] (setting [5]), the chemical recovery is 7.45 ± 4.7%. In addition, the figures for the “chemical recovery into PDMS” value in data set [2] (equilibration time (d): 1), in data set [2] (equilibration time (d): 3) and in data set [2] (equilibration time (d): 6) were 3.85 ± 3.4%, 5.97 ± 3% and 6.08 ± 2.5%, respectively. Also, the “chemical recovery by SPE of plasma” value worked out at 0.988 ± 0.82% in data set [3] (equilibration time (d): 1), 0.992 ± 0.41% in data set [3] (equilibration time (d): 3) and 0.785 ± 0.37% in data set [3] (equilibration time (d): 6).
With `CN(C)CCOC(c1ccccc1)c1ccccc1` [Diphenhydramine], the chemical recovery in data set [1] (setting [4]) was found to be 0.391 ± 0.13%; in data set [1] (setting [5]), 44.7 ± 3%; in data set [1] (setting [6]), 50.3 ± 5.5%; in data set [1] (setting [7]) it was 52.4 ± 4.6%. Further, the entries for the “chemical recovery into PDMS” value in data set [2] (equilibration time (d): 1) and in data set [2] (equilibration time (d): 3) were 0.00464 ± 0.0041% and 0.0114 ± 0.013%, respectively. The “chemical recovery by SPE of plasma” value in data set [3] (equilibration time (d): 1) came out at 0.353 ± 0.014%; in data set [3] (equilibration time (d): 3), 0.464 ± 0.19%; in data set [3] (equilibration time (d): 6) it was 0.236 ± 0.039%.
`c1ccc(Cc2ccccc2)cc1` [Diphenylmethane] registered a chemical recovery in data set [1] (setting [5]) of 20.4 ± 5.3%. In addition, the “chemical recovery into PDMS” value in data set [2] (equilibration time (d): 1) came out at 33.8 ± 1.2%; in data set [2] (equilibration time (d): 6), 40.4 ± 12%. The “chemical recovery by SPE of plasma” value in data set [3] (equilibration time (d): 3) was determined as 10.1 ± 5.8%; in data set [3] (equilibration time (d): 6) it was 5.98 ± 9.4%.
With `O=S(=O)(c1ccccc1)c1ccccc1` [Diphenylsulfone], the chemical recovery in data set [1] (setting [5]) stood at 0.293 ± 0.035%; in data set [1] (setting [6]), 15.5 ± 1.1%; in data set [1] (setting [7]) it was 16.4 ± 3.6%. In addition, the “chemical recovery into PDMS” value in data set [2] (equilibration time (d): 1) amounted to 56.9 ± 12%. In addition, the “chemical recovery by SPE of plasma” value came to 5.48 ± 3.7% in data set [3] (equilibration time (d): 1), 9.14 ± 0.92% in data set [3] (equilibration time (d): 3) and 7.53 ± 2.3% in data set [3] (equilibration time (d): 6).
Consider `CN(C)C(=O)Nc1ccc(Cl)c(Cl)c1` [Diuron], for which the chemical recovery in data set [1] (setting [4]) stood at 56.2 ± 5%; in data set [1] (setting [5]), 48.9 ± 3.2%; in data set [1] (setting [6]), 55.9 ± 7.4%; in data set [1] (setting [7]), 74.6 ± 2.9%. In addition, the “chemical recovery into PDMS” value in data set [2] (equilibration time (d): 1) came out at 32.6 ± 1.8%; in data set [2] (equilibration time (d): 3), 36.3 ± 1.6%; in data set [2] (equilibration time (d): 6), 37 ± 2%. Moreover, the “chemical recovery by SPE of plasma” value worked out at 8.44 ± 0.83% in data set [3] (equilibration time (d): 1), 7.52 ± 0.91% in data set [3] (equilibration time (d): 3) and 4.83 ± 0.33% in data set [3] (equilibration time (d): 6).

(Values after the supplement of paper PMC10702517.)
